We go through one compound from US6476062B2, “Chemokine receptor antagonists” (Schering Corporation, priority 2000, dated 2002).

The target in this assay is T1, human CCR5 chemokine receptor (Homo sapiens, UniProt P51681).
T1 construct: expressed in transfected cells; host or cells: NIH 3T3 cells (mouse fibroblasts) expressing human CCR5; membranes prepared from them
In words: CCR5 membrane binding assay (inhibition of 125I-RANTES binding). The note with it: membranes from NIH 3T3 cells expressing human CCR5; 0.05 nM 125I Rantes; one hour; replicates of four; read-out: IC50, 50 percent inhibition of total membrane binding of 125I Rantes. The protocol:
A high throughput screen utilizing a CCR5 membrane binding assay identifies inhibitors of RANTES binding. This assay utilizes membranes prepared from NIH 3T3 cells expressing the human CCR5 chemokine receptor which have the ability to bind to RANTES, a natural ligand for the receptor. Using a 96-well plate format, membrane preparations are incubated with ^125I-RANTES in the presence or absence of compound for one hour. Compounds are serially diluted over a wide range of 0.001 ug/ml to 1 ug/ml and tested in triplicates. Reaction cocktails are harvested through glass fiber filters, and washed thoroughly. Total counts for replicates are averaged and data reported as the concentration required to inhibit 50 percent of total ^125I-RANTES binding. Compounds with potent activity in the membrane binding assay are further characterized in secondary cell-based HIV-1 entry and replication assays.
The activity of the compound of formula II was evaluated in the CCR5 membrane binding assay. The assay utilizes membranes prepared from NIH 3T3 cells which express human CCR5 chemokine receptor. RANTES (Regulated upon Activation, Normal T cell Expressed and Secreted) is a natural ligand for the CCR5. […] Total counts for replicates are averaged and 50 percent inhibition of total membrane binding of ^125I Rantes is determined.

The structures appear in SMILES notation.

T1 sequence (P51681 whole entry): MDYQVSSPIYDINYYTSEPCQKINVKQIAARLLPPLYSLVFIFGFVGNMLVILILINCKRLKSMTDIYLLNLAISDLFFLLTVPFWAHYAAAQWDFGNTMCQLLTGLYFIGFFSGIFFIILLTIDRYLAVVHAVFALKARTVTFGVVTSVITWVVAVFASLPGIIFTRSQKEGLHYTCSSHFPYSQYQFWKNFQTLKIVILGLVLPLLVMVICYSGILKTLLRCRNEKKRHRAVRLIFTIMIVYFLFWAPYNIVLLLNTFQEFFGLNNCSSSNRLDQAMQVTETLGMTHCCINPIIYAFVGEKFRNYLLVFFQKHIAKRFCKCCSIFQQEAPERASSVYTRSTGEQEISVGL

Turning to `C/C=C(\C)[C@@H]1C=C[C@@H]2C[C@H](C)C[C@H](C)[C@H]2[C@@H]1/C(O)=C1/C(=O)N[C@H](C[C@@](C)(O)C(=O)O)C1=O` [Compound II], the concentration for half-maximal inhibition (IC50) was found to be 78.6 nM.
